Measurements as given in patent US20240083886A1, “HETEROCYCLIC GLP-1 AGONISTS” (Gasherbrum Bio, Inc., priority 2020, published 2024).
Like-named read-outs stand apart in the source and are kept apart here.

Target: GLP-1 Receptor (Homo sapiens, UniProt P43220)
Assay: GLP-1R agonist cAMP stimulation assay
Type: cell-based
Description: Activation of GLP-1 receptor is known to stimulate cyclic AMP (cAMP) production in cells which indicates primary coupling to the Gαs subunit of the G protein heterotrimeric complex.
To optimize functional activity directed toward Gαs coupling, a HEK293/CRE-Luc cell line developed by HDB stably expressing the GLP-1 Receptor was used. 200× concentration of compound working solutions were prepared (Agilent Technologies Bravo) with ½ log serial dilution in 384-well Echo LDV plate (Labcyte, Cat #LP-0200). 50 nL/well 200× concentration of compound working solutions were moved to 384-well white low volume plate (Greiner, Cat #784075) using Labcyte ECHO550. 1×10^5 cells/mL HEK293/GLP1R/CRE-LUC(HD Biosciences) cell suspensions prepared with assay buffer[DPBS containing 0.5 mM IBMX(Sigma, Cat #15879) and 0.1% BSA (GENVIEW, Cat #FA016-100 g)], 10 uL cell suspensions were added to each well of previous generated assay plate which already contains 50 nl compound at 200×concentration using ThermoFisher Multidrop Combi (1000 cells/well). Seal the plate and incubate at 37° C. with 5% CO2 for 30 min.
After incubation the cAMP assay signal was generated using cAMP dynamic 2 Kit (Cisbio). 5 μL cAMP-d2 working solution was added to each well, followed with 5 μL Anti-cAMP antibody-cryptate working solution added to each well using ThermoFisher Multidrop Combi. Incubate at room temperature for 1 hour protected from light. Read the fluorescence at 665 and 615 nm with Reader PerkinElmer EnVision.
% Activity=100%×(mean RLU of test sample−mean RLU of vehicle control)/(mean RLU of MAX control−mean RLU of vehicle control))

[1] = HEK293/GLP1R/CRE-LUC cells, cAMP dynamic 2 Kit (Cisbio), 30 min incubation at 37° C., read-out: EC50

Chain of GLP-1 Receptor (P43220 24-463, species assumed): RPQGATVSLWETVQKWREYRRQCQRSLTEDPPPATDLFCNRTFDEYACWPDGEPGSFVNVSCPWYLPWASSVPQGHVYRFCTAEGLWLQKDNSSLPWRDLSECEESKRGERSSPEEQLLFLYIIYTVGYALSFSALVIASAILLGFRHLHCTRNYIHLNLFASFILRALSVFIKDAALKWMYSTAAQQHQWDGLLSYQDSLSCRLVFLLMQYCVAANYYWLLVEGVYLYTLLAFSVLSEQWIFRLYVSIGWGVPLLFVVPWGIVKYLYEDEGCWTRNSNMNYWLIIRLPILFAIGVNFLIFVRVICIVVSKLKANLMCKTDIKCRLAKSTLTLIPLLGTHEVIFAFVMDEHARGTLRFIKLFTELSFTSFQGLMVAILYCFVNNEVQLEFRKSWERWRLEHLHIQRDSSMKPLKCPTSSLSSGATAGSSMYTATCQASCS

SMILES	EC50 [nM]	EC50 [1] [nM]
FC(F)(F)c1nnc(-c2cnc3c(c2)nc(CN2CCC(Oc4cccc(Cc5ccc(Cl)cc5)n4)CC2)n3C[C@@H]2CCO2)[nH]1 [Compound 143a, 2-[(4-chlorophenyl)methyl]-6-({1-[(3-{[(2S)-oxetan-2-yl]methyl}-6-[5-(trifluoromethyl)-4H-1,2,4-triazol-3-yl]-3H-imidazo[4,5-b]pyridin-2-yl)methyl]piperidin-4-yl}oxy)pyridine]	0.22	
FC(F)(F)c1nnc(-c2ccc3c(c2)nc(CN2CCC(Oc4cccc(Cc5ccc(Cl)cc5)n4)CC2)n3C[C@@H]2CCO2)[nH]1 [Compound 136a, 2-{[4-({6-[(4-chlorophenyl)methyl]pyridin-2-yl}oxy)piperidin-1-yl]methyl}-1-{[(2S)-oxetan-2-yl]methyl}-5-[5-(trifluoromethyl)-4H-1,2,4-triazol-3-yl]-1H-1,3-benzodiazole]	0.22	
Cc1ccncc1C(=O)Nc1ccc2c(c1)nc(CN1CCC(Oc3ccnc(Cc4ccc(Cl)cc4)n3)CC1)n2C[C@@H]1CCO1 [Compound 105a, N-(2-{[4-({2-[(4-chlorophenyl)methyl]pyrimidin-4-yl}oxy)piperidin-1-yl]methyl}-1-{[(2S)-oxetan-2-yl]methyl}-1H-1,3-benzodiazol-5-yl)-4-methylpyridine-3-carboxamide]		5.8
CC(=O)Nc1ccc2c(c1)nc(CN1CCC(Oc3cccc(Cc4ccc(Cl)cc4F)n3)CC1)n2C[C@@H]1CCO1 [Compound 160a]		12.2
Cc1ncccc1C(=O)Nc1ccc2c(c1)nc(CN1CCC(Oc3ccnc(Cc4ccc(Cl)cc4)n3)CC1)n2C[C@@H]1CCO1 [Compound 103a, N-(2-{[4-({2-[(4-chlorophenyl)methyl]pyrimidin-4-yl}oxy)piperidin-1-yl]methyl}-1-{[(2S)-oxetan-2-yl]methyl}-1H-1,3-benzodiazol-5-yl)-2-methylpyridine-3-carboxamide]		0.093
O=c1[nH]c(-c2cc3nc(CN4CCC(Oc5ccnc(Cc6ccc(Cl)cc6)n5)CC4)n(C[C@@H]4CCO4)c3cn2)no1 [Compound 145a, 3-(2-{[4-({2-[(4-chlorophenyl)methyl]pyrimidin-4-yl}oxy)piperidin-1-yl]methyl}-3-{[(2S)-oxetan-2-yl]methyl}-3H-imidazo[4,5-c]pyridin-6-yl)-4,5-dihydro-1,2,4-oxadiazol-5-one]		0.082
Fc1cc(Cl)ccc1Cc1cccc(OC2CCN(Cc3nc4cc(-c5nnn[nH]5)ccc4n3C[C@@H]3CCO3)CC2)n1 [Compound 110a, 2-{[4-({6-[(4-chloro-2-fluorophenyl)methyl]pyridin-2-yl}oxy)piperidin-1-yl]methyl}-1-{[(2S)-oxetan-2-yl]methyl}-5-(1H-1,2,3,4-tetrazol-5-yl)-1H-1,3-benzodiazole]		0.38
Fc1cc2c(cc1-c1nnc(C(F)(F)F)[nH]1)nc(CN1CCC(Oc3ccnc(Cc4ccc(Cl)cc4)n3)CC1)n2C[C@@H]1CCO1 [Compound 122a, 2-{[4-({2-[(4-chlorophenyl)methyl]pyrimidin-4-yl}oxy)piperidin-1-yl]methyl}-6-fluoro-1-{[(2S)-oxetan-2-yl]methyl}-5-[5-(trifluoromethyl)-4H-1,2,4-triazol-3-yl]-1H-1,3-benzodiazole]		0.54
Cc1ccc(C(=O)Nc2ccc3c(c2)nc(CN2CCC(Oc4ccnc(Cc5ccc(Cl)cc5)n4)CC2)n3C[C@@H]2CCO2)cn1 [Compound 104a, N-(2-{[4-({2-[(4-chlorophenyl)methyl]pyrimidin-4-yl}oxy)piperidin-1-yl]methyl}-1-{[(2S)-oxetan-2-yl]methyl}-1H-1,3-benzodiazol-5-yl)-6-methylpyridine-3-carboxamide]		1.1
O=C(O)c1ccc2c(c1)nc(CN1CCC(Oc3nc(Cc4ccc(Cl)cc4F)ncc3F)CC1)n2C[C@@H]1CCO1 [Compound 165a, 2-{[4-({2-[(4-chloro-2-fluorophenyl)methyl]-5-fluoropyrimidin-4-yl}oxy)piperidin-1-yl]methyl}-1-{[(2S)-oxetan-2-yl]methyl}-1H-1,3-benzodiazole-5-carboxylic acid]		12
Fc1cc(Cl)ccc1Cc1ncc(F)c(OC2CCN(Cc3nc4cc(-c5nnc(C(F)(F)F)[nH]5)nnc4n3C[C@@H]3CCO3)CC2)n1 [Compound 180a, 2-[(4-chloro-2-fluorophenyl)methyl]-5-fluoro-4-({1-[(7-{[(2S)-oxetan-2-yl]methyl}-3-[5-(trifluoromethyl)-4H-1,2,4-triazol-3-yl]-7H-imidazo[4,5-c]pyridazin-6-yl)methyl]piperidin-4-yl}oxy)pyrimidine]		0.65
Fc1cc(Cl)ccc1Cc1ncc(F)c(OC2CCN(Cc3nc4cc(-c5nnc[nH]5)ncc4n3C[C@@H]3CCO3)CC2)n1 [Compound 169a, 2-[(4-chloro-2-fluorophenyl)methyl]-5-fluoro-4-({1-[(3-{[(2S)-oxetan-2-yl]methyl}-6-(4H-1,2,4-triazol-3-yl)-3H-imidazo[4,5-c]pyridin-2-yl)methyl]piperidin-4-yl}oxy)pyrimidine]	1.5	
Fc1cc(Cl)ccc1Cc1ncc(F)c(OC2CCN(Cc3nc4cc(-c5nnn[nH]5)ncc4n3C[C@@H]3CCO3)CC2)n1 [Compound 175a, 2-[(4-chloro-2-fluorophenyl)methyl]-5-fluoro-4-({1-[(3-{[(2S)-oxetan-2-yl]methyl}-6-(1H-1,2,3,4-tetrazol-5-yl)-3H-imidazo[4,5-c]pyridin-2-yl)methyl]piperidin-4-yl}oxy)pyrimidine]		0.17
Cc1nnc(-c2cc3nc(CN4CCC(Oc5nc(Cc6ccc(Cl)cc6)ncc5F)CC4)n(C[C@@H]4CCO4)c3cn2)[nH]1 [Compound 163a, 2-[(4-chlorophenyl)methyl]-5-fluoro-4-[(1-{[6-(5-methyl-4H-1,2,4-triazol-3-yl)-3-{[(2S)-oxetan-2-yl]methyl}-3H-imidazo[4,5-c]pyridin-2-yl]methyl}piperidin-4-yl)oxy]pyrimidine]	0.25	
Fc1cc(Cl)ccc1Cc1nccc(OC2CCN(Cc3nc4cc(/C=C/c5cccnc5)ccc4n3C[C@@H]3CCO3)CC2)n1 [Compound 118a, 2-{[4-({2-[(4-chloro-2-fluorophenyl)methyl]pyrimidin-4-yl}oxy)piperidin-1-yl]methyl}-1-{[(2S)-oxetan-2-yl]methyl}-5-[(1E)-2-(pyridin-3-yl)ethenyl]-1H-1,3-benzodiazole]	44	
Cc1ccc(C(=O)Nc2ccc3c(c2)nc(CN2CCC(Oc4ccnc(Cc5ccc(Cl)cc5F)n4)CC2)n3C[C@@H]2CCO2)cn1 [Compound 113a, N-(2-{[4-({2-[(4-chloro-2-fluorophenyl)methyl]pyrimidin-4-yl}oxy)piperidin-1-yl]methyl}-1-{[(2S)-oxetan-2-yl]methyl}-1H-1,3-benzodiazol-5-yl)-6-methylpyridine-3-carboxamide]		0.18
Fc1cc(Cc2cccc(OC3CCN(Cc4nc5cc(-c6nnc(C(F)(F)F)[nH]6)ncc5n4C[C@@H]4CCO4)CC3)n2)ccc1Cl [Compound 185a, 2-[(4-chloro-3-fluorophenyl)methyl]-6-({1-[(3-{[(2S)-oxetan-2-yl]methyl}-6-[5-(trifluoromethyl)-4H-1,2,4-triazol-3-yl]-3H-imidazo[4,5-c]pyridin-2-yl)methyl]piperidin-4-yl}oxy)pyridine]		0.37
Cc1ccc(-c2ccc3c(c2)nc(CN2CCC(Oc4ccnc(Cc5ccc(Cl)cc5)n4)CC2)n3C[C@@H]2CCO2)nn1 [Compound 124a, 2-{[4-({2-[(4-chlorophenyl)methyl]pyrimidin-4-yl}oxy)piperidin-1-yl]methyl}-5-(6-methylpyridazin-3-yl)-1-{[(2S)-oxetan-2-yl]methyl}-1H-1,3-benzodiazole]	0.59	
O=C(Nc1ccc2c(c1)nc(CN1CCC(Oc3ccnc(Cc4ccc(Cl)cc4F)n3)CC1)n2C[C@@H]1CCO1)c1ccc(C2CC2)nc1 [Compound 117a, N-(2-{[4-({2-[(4-chloro-2-fluorophenyl)methyl]pyrimidin-4-yl}oxy)piperidin-1-yl]methyl}-1-{[(2S)-oxetan-2-yl]methyl}-1H-1,3-benzodiazol-5-yl)-6-cyclopropylpyridine-3-carboxamide]		5.9
FC(F)(F)c1nnc(-c2ccc3c(c2)nc(CN2CCC(Oc4ccnc(Cc5ccc(Cl)cc5)n4)CC2)n3C[C@@H]2CCO2)[nH]1 [Compound 106a, 2-{[4-({2-[(4-chlorophenyl)methyl]pyrimidin-4-yl}oxy)piperidin-1-yl]methyl}-1-{[(2S)-oxetan-2-yl]methyl}-5-[5-(trifluoromethyl)-4H-1,2,4-triazol-3-yl]-1H-1,3-benzodiazole]	0.098	
O=c1[nH]c(-c2ccc3c(c2)nc(CN2CCC(Oc4cccc(Cc5ccc(Cl)cc5F)n4)CC2)n3C[C@@H]2CCO2)no1 [Compound 109a]		15
FC1(F)CCN(Cc2cccc(OC3CCN(Cc4nc5cc(-c6nnc(C(F)(F)F)[nH]6)ncc5n4C[C@@H]4CCO4)CC3)n2)CC1 [Compound 184a, 2-[(4,4-difluoropiperidin-1-yl)methyl]-6-({1-[(3-{[(2S)-oxetan-2-yl]methyl}-6-[5-(trifluoromethyl)-4H-1,2,4-triazol-3-yl]-3H-imidazo[4,5-c]pyridin-2-yl)methyl]piperidin-4-yl}oxy)pyridine]		13
